From patent US20120202756A1, “USE OF PRODRUGS TO AVOID GI MEDIATED ADVERSE EVENTS” (priority 2009, published 2012)
≈ marks a conversion by molar mass, not a printed value. Where “and” joins values, the source holds several entries; their conditions need not be identical. Equal entries are not always repeated. Where two headings read alike, the source gives them in different places.

Assays:
[1] = target: human acetylcholineesterase (Homo sapiens, UniProt P22303); assay: Human acetylcholineesterase activity in vitro assay (CEREP); format: biochemical
Chain of human acetylcholineesterase (P22303 32-614): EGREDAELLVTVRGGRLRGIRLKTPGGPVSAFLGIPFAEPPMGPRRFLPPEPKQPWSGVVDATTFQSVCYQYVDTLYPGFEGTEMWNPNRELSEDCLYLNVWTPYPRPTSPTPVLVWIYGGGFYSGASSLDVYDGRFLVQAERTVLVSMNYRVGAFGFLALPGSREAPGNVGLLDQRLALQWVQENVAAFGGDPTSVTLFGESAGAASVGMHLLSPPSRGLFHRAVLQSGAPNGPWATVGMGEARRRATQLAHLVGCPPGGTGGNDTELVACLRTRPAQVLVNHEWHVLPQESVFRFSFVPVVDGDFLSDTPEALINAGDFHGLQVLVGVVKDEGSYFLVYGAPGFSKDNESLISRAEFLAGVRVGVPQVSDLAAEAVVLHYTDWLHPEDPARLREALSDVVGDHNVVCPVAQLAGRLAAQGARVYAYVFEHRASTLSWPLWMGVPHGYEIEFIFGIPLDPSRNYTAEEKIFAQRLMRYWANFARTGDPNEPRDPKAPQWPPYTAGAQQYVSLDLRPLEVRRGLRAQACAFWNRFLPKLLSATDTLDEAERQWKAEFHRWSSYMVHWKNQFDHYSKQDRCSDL

[2] = Stability in simulated intestinal juice (FaSSIF); format: in vitro ADME; details: FaSSIF pH 6.5, pancreatin 1%, prodrug 20 μg/mL
Protocol: (§1) To avoid direct interaction between the active drug and the gut microfloral population, the prodrug should not undergo premature chemical or enzymic cleavage back to the parent dug while within the gut lumen. To confirm this the prodrugs were incubated with USP SGF (simulated gastric fluid), FeSSIF (fed state simulated intestinal fluid) and FaSSIF (fasted state simulated intestinal fluid) and remaining prodrug and any generated active drug assayed by use of a qualified LC-MS/MS analytical method.
(§2) Method—Prodrug (20 μg/mL) in the FaSSIF cocktail comprising sodium taurocholate 3 mM, lecithin 0.75 mM, NaOH 8.7 mM, NaH2PO4. H2O 28.7 mM, NaCl 106 mM, pancreatin 1% (overall pH 6.5) was incubated for 2 h at 37° C. After acidifying the incubation to stop any reaction the amount of prodrug remaining and drug generated were determined using a qualified LC-MS/MS method.
(§3) To minimize the direct inhibitory action of this drug on gastric emptying/gut motility—and resultant nausea—the prodrug should not undergo premature chemical or enzymic cleavage back to the parent drug while within the gut lumen. To confirm this, the prodrugs were incubated with USP SGF (simulated gastric fluid), FeSSIF (fed state simulated intestinal fluid) and FaSSIF (fasted state simulated intestinal fluid) and remaining prodrug, and any generated active drug, assayed by use of a qualified LC-MS/MS analytical method.
as §2, with “Prodrug” for “Method—Prodrug”
as §1, with “gut,” for “gut microfloral population,”

[3] = Stability in simulated intestinal juice (FeSSIF); format: in vitro ADME; details: FeSSIF pH 5.0, pancreatin 1%
Protocol: as §1
Pancreatin was again added at 1%.
as §3
as §1, with “gut,” for “gut microfloral population,”

[4] = Bioavailability of donepezil from its prodrugs in the cynomolgus monkey; details: relative bioavailability of donepezil vs dosing donepezil itself, male monkeys
Description: (§4) Subsequent pharmacokinetic analysis was then undertaken using Win NonLin to generate the relevant PK parameters including Cmax, Tmax and AUC and T1/2.

[5] = Bioavailability of donepezil from its prodrugs in the male beagle dog; details: relative bioavailability of donepezil vs dosing donepezil itself, male dogs
Description: as §4

[6] = Stability in USP simulated gastric juice; format: in vitro ADME; details: USP SGF pH 1.1, pepsin […], prodrug 20 μg/mL
Description: To minimize the direct inhibitory action of this drug on gastric emptying/gut motility—and resultant nausea—the prodrug should not undergo premature chemical or enzymic cleavage back to the parent drug while within the gut lumen.

Prevotella bivia = assay: MIC agar dilution; format: cell-based; details: ATCC29303, ATCC 29303
Clostridium sporogenes = assay: MIC agar dilution; format: cell-based; details: ATCC3584, ATCC 3584
Veillonella spp. = assay: MIC agar dilution; format: cell-based; details: clinical isolate
[7] = test system: Peptostreptococcus micros; assay: MIC agar dilution; format: cell-based; details: Parvimonas micra; clinical isolate
[8] = test system: Fusobacterium necrophorum; assay: MIC agar dilution; format: cell-based; details: clinical isolate
[9] = test system: Bifidobacterium adolescentis; assay: MIC agar dilution; format: cell-based; details: NCTC11814
Clostridium difficile = assay: MIC agar dilution; format: cell-based; details: Clostridioides difficile
Bacteroides fragilis = assay: MIC agar dilution
Clostridium bifermentans = assay: MIC agar dilution; format: cell-based; details: Paraclostridium bifermentans, ATCC638
[10] = test system: Porphyromonas assacharolyticus; assay: MIC agar dilution; format: cell-based; details: clinical isolate
[11] = test system: Peptostreptococcus magnus; assay: MIC agar dilution; format: cell-based; details: Finegoldia magna; clinical isolate
Veillonella parvula = assay: MIC agar dilution; format: cell-based; details: NCTC11810
Bifidobacterium dentium = assay: MIC agar dilution; format: cell-based; details: NCTC11816
Campylobacter coli = assay: MIC agar dilution
[12] = test system: Bacteroides thetaiotamicron; assay: MIC agar dilution; format: cell-based
[13] = Bioavailability of metronidazole from its prodrugs in the rat; details: for T>50% Cmax: period plasma metronidazole at or above 50% of Cmax, oral 1 mg equivalents/kg
Protocol: In order to confirm successful absorption and subsequent hydrolysis of these metronidazole prodrugs, a comparative bioavailability study was undertaken in the rat Methods—Three groups of five male Sprague Dawley rats were orally dosed with either metronidazole itself or its succinyl valine or glutaryl para-amino benzoic acid ester prodrugs. Serial tail vein blood samples were subsequently collected via an indwelling cannuala into EDTA tubes containing a stabilising cocktail (including 6 mg/mL NaF) to prevent post collection enzymic hydrolysis of the prodrug. Separated plasma samples were subjected to bioanalysis for both the prodrugs and metronidazole itself using a qualified LC/MS-MS bioanalytical method.

Veillonella atypical = assay: MIC agar dilution; format: cell-based; details: NCTC11830
Clostridium novyi = assay: MIC agar dilution; format: cell-based; details: ATCC19402
[14] = test system: Porphyromonas endodontalis; assay: MIC agar dilution; format: cell-based; details: clinical isolate
Eggerthella lenta = assay: MIC agar dilution; format: cell-based; details: ATCC43055, ATCC 43055
Helicobacter pylori = assay: MIC agar dilution
[15] = test system: Peptostreptococcus anaerobius; assay: MIC agar dilution; format: cell-based; details: NCTC11460
Prevotella denticola = assay: MIC agar dilution; format: cell-based; details: clinical isolate
Propionibacterium acnes = assay: MIC agar dilution
Clostridium sordellii = assay: MIC agar dilution; format: cell-based; details: Paraclostridium sordellii, NCTC13356; NCTC 13356
Clostridium perfringens = assay: microbe, parasite or virus in culture; format: cell-based
Bifidobacterium longum = assay: MIC agar dilution; format: cell-based; details: NCTC11818
Campylobacter jejuni = assay: MIC agar dilution
[16] = NCTC13366, NCTC 13366 - NAP1/027
[17] = antibiotic-susceptible clinical isolate
[18] = clinical isolate (first listed, r83)
[19] = clinical isolate (second listed, r85)
[20] = clinical isolate MIC clindamycin 0.5 mg/L

COc1cc2c(cc1OC)C(OC(=O)CCCC(=O)O)=C(CC1CCN(Cc3ccccc3)CC1)C2 [Donepezil glutaryl enol ester, Donepezil-(Glutaryl) enol ester]
IC50 [1]: 830 nM

COc1cc2c(cc1OC)C(OC(=O)CCCC(=O)N[C@H](C(N)=O)C(C)C)=C(CC1CCN(Cc3ccccc3)CC1)C2 [Donepezil glutaryl valinamide, donepezil[glutaryl-(S)-valinamide]enol ester]
Simulated intestinal juice (2 h, 37° C.) (FaSSIF) % active drug generated [2]: <2.0% | Simulated intestinal juice (2 h, 37° C.) (FeSSIF) % active drug generated [3]: <2.0% | Frel ([4]; individual animals): 97% and 44% and 99% and 64% and 89% | Frel ([4]; mean): 79% | Frel ([5]; individual animals): 85% and 25% and 62% and 44% and 28% | Frel ([5]; mean): 49% | Simulated gastric juice (1 h, 37° C.) % active drug generated [6]: <2.0%

Cc1ncc([N+](=O)[O-])n1CCOC(=O)CCC(=O)N[C@H](C(=O)O)C(C)C [Metronidazole succinyl valine ester, Metronidazole-[succinyl-(S)-valine]ester]
MIC (Prevotella bivia): > 64 µg/mL | MIC (Clostridium sporogenes): 32 µg/mL (≈ 86.4 µM) | MIC (Veillonella spp.): > 64 µg/mL | MIC [7]: 64 µg/mL (≈ 173 µM) | MIC [8]: 32 µg/mL (≈ 86.4 µM) | MIC [9]: > 64 µg/mL | MIC (Clostridium difficile; ATCC700057, ATCC 700057): 32 µg/mL (≈ 86.4 µM) | MIC (Clostridium difficile; [16]): 64 µg/mL (≈ 173 µM) | MIC (Clostridium difficile; [17]): 32 µg/mL (≈ 86.4 µM) | MIC (Bacteroides fragilis): > 64 µg/mL | MIC (Bacteroides fragilis; ATCC25285): > 64 µg/mL | MIC (Clostridium bifermentans): > 64 µg/mL | MIC [10]: > 64 µg/mL | MIC [11]: 64 µg/mL (≈ 173 µM) | MIC (Veillonella parvula): > 64 µg/mL | MIC (Bifidobacterium dentium): > 64 µg/mL | MIC (Campylobacter coli): > 64 µg/mL | MIC (Campylobacter coli; ATCC33559): > 64 µg/mL | MIC ([12]; ATCC29741): > 64 µg/mL | MIC ([12]; NCTC10582): > 64 µg/mL | Tmax ([13]; male, Sprague Dawley, rat, in vivo, po): 2.0 h | MIC (Veillonella atypical): > 64 µg/mL | MIC (Clostridium novyi): > 64 µg/mL | MIC [14]: > 64 µg/mL | MIC (Eggerthella lenta): > 64 µg/mL | MIC (Helicobacter pylori; [18]): 64 µg/mL (≈ 173 µM) | MIC (Helicobacter pylori; [19]): 64 µg/mL (≈ 173 µM) | MIC [15]: 32 µg/mL (≈ 86.4 µM) | MIC (Prevotella denticola): > 64 µg/mL | MIC (Propionibacterium acnes; Cutibacterium acnes): > 64 µg/mL | MIC (Propionibacterium acnes; [20]): >64 µg/mL | MIC (Clostridium sordellii): > 64 µg/mL | MIC (Clostridium perfringens): > 64 µg/mL | MIC (Clostridium perfringens; ATCC13124): > 64 µg/mL | MIC (Bifidobacterium longum): > 64 µg/mL | MIC (Campylobacter jejuni): > 64 µg/mL | MIC (Campylobacter jejuni; ATCC33560): > 64 µg/mL

Cc1ncc([N+](=O)[O-])n1CCO [Metronidazole, metronidazole, reference compound]
MIC (Prevotella bivia): 1 µg/mL (≈ 5.84 µM) | MIC (Clostridium sporogenes): 0.06 µg/mL (≈ 0.351 µM) | MIC (Veillonella spp.): 2 µg/mL (≈ 11.7 µM) | MIC [7]: 0.25 µg/mL (≈ 1.46 µM) | MIC [8]: 0.12 µg/mL (≈ 0.701 µM) | MIC [9]: 32 µg/mL (≈ 187 µM) | MIC (Clostridium difficile; ATCC700057, ATCC 700057): 0.12 µg/mL (≈ 0.701 µM) | MIC (Clostridium difficile; [16]): 0.12 µg/mL (≈ 0.701 µM) | MIC (Clostridium difficile; [17]): 0.06 µg/mL (≈ 0.351 µM) | MIC (Bacteroides fragilis): 0.5 µg/mL (≈ 2.92 µM) | MIC (Bacteroides fragilis; ATCC25285): 0.5 µg/mL (≈ 2.92 µM) | MIC (Clostridium bifermentans): 0.25 µg/mL (≈ 1.46 µM) | MIC [10]: 0.5 µg/mL (≈ 2.92 µM) | MIC [11]: 0.25 µg/mL (≈ 1.46 µM) | MIC (Veillonella parvula): 4 µg/mL (≈ 23.4 µM) | MIC (Bifidobacterium dentium): 16 µg/mL (≈ 93.5 µM) | MIC (Campylobacter coli): 1 µg/mL (≈ 5.84 µM) | MIC (Campylobacter coli; ATCC33559): 0.5 µg/mL (≈ 2.92 µM) | MIC ([12]; ATCC29741): 1 µg/mL (≈ 5.84 µM) | MIC ([12]; NCTC10582): 1 µg/mL (≈ 5.84 µM) | time of peak plasma levels after dosing ([13]; oral, male rats): ≤ 15 min | T>50% Cmax ([13]; male rats, individual animals): 1.5 h and 1.75 h and 2.75 h and 3.0 h and 2.5 h | T>50% Cmax ([13]; male rats, mean): 2.3 ± 0.65 h and 2.3 h | MIC (Veillonella atypical): 8 µg/mL (≈ 46.7 µM) | MIC (Clostridium novyi): 0.5 µg/mL (≈ 2.92 µM) | MIC [14]: 1 µg/mL (≈ 5.84 µM) | MIC (Eggerthella lenta): 0.5 µg/mL (≈ 2.92 µM) | MIC (Helicobacter pylori; [18]): 2 µg/mL (≈ 11.7 µM) | MIC (Helicobacter pylori; [19]): 2 µg/mL (≈ 11.7 µM) | MIC [15]: 0.12 µg/mL (≈ 0.701 µM) | MIC (Prevotella denticola): 0.5 µg/mL (≈ 2.92 µM) | MIC (Propionibacterium acnes; Cutibacterium acnes): > 64 µg/mL | MIC (Propionibacterium acnes; [20]): >64 µg/mL | MIC (Clostridium sordellii): 0.5 µg/mL (≈ 2.92 µM) | MIC (Clostridium perfringens): 2 µg/mL (≈ 11.7 µM) | MIC (Clostridium perfringens; ATCC13124): 1 µg/mL (≈ 5.84 µM) | MIC (Bifidobacterium longum): 8 µg/mL (≈ 46.7 µM) | MIC (Campylobacter jejuni): 8 µg/mL (≈ 46.7 µM) | MIC (Campylobacter jejuni; ATCC33560): 1 µg/mL (≈ 5.84 µM)
